Assay results reported in patent publication US20220132847A1, “CINNOLINIUM COMPOUNDS FOR USE IN A METHOD OF CONTROLLING UNWANTED PLANT GROWTH” (SYNGENTA CROP PROTECTION AG, priority 2019, published 2022).

System: Chenopodium album (CHEAL)
Experiment: Post-emergence efficacy, glasshouse
Type: in vivo
Conditions: Chenopodium album, post-emergence, 312 h; Application Rate 1000 g/Ha; evaluated after 13 days; 100=total damage to plant, 0=no damage to plant; read-out: Control of weed species after post-emergence application, CHEAL
Protocol: (§1) Seeds of a variety of test species were sown in standard soil in pots. After cultivation for 14 days (post-emergence) under controlled conditions in a glasshouse (at 24/16° C., day/night; 14 hours light; 65% humidity), the plants were sprayed with an aqueous spray solution derived from the dissolution of the technical active ingredient formula (I) in a small amount of acetone and a special solvent and emulsifier mixture referred to as IF50 (11.12% Emulsogen EL360™+44.44% N-methylpyrrolidone+44.44% Dowanol DPM glycol ether), to create a 50 g/l solution which was then diluted to required concentration using 0.25% or 1% Empicol ESC70 (Sodium lauryl ether sulphate)+1% ammonium sulphate in water as diluent.
(§2) The test plants were then grown in a glasshouse under controlled conditions (at 24/16° C., day/night; 14 hours light; 65% humidity) and watered twice daily. After 13 days the test was evaluated (100=total damage to plant; 0=no damage to plant).
(§3) Ipomoea hederacea (IPOHE), Euphorbia heterophylla (EPHHL), Chenopodium album (CHEAL), Amaranthus palmeri (AMAPA), Lolium perenne (LOLPE), Digitaria sanguinalis (DIGSA), Eleusine indica (ELEIN), Echinochloa crus-galli (ECHCG), Setaria faberi (SETFA)

| SMILES | pest or weed control at 1000 g/ha [%] |
| --- | --- |
| CCCC[n+]1cc(C(=O)[N-]S(C)(=O)=O)c2ccccc2n1 [Compound A41] | 60 |
| C[n+]1nc2ccccc2c(C(=O)[O-])c1-c1ccccc1 [Compound A60] | 100 |
| C[n+]1cc(C(=O)[N-]S(=O)(=O)c2ccc(F)cc2)c2ccccc2n1 [Compound A38] | 50 |
| C[n+]1cc(C(=O)[N-]S(=O)(=O)C(F)(F)F)c2ccccc2n1 [Compound A44] | 40 |
| COP(=O)(O)Cc1c[n+](C)nc2ccccc12 [Compound A53] | 70 |
| C[n+]1cc(C(=O)[N-]S(=O)(=O)CCC(F)(F)F)c2ccccc2n1 [Compound A43] | 30 |
| COC(=O)CC[n+]1cc(C(=O)[N-]S(C)(=O)=O)c2ccccc2n1 [Compound A18] | 10 |
| COP(=O)(OC)c1c[n+](CCOS(=O)(=O)[O-])nc2ccccc12 [Compound A70] | 60 |

System: Setaria faberi (SETFA)
Experiment: Post-emergence efficacy, glasshouse
Type: in vivo
Conditions: Setaria faberi, post-emergence, 312 h; Application Rate 1000 g/Ha; evaluated after 13 days; 100=total damage to plant, 0=no damage to plant; read-out: Control of weed species after post-emergence application, SETFA
Protocol: as §1, §2, §3

| SMILES | pest or weed control at 1000 g/ha [%] |
| --- | --- |
| CCCC[n+]1cc(C(=O)[N-]S(C)(=O)=O)c2ccccc2n1 [Compound A41] | 40 |
| C[n+]1nc2ccccc2c(C(=O)[O-])c1-c1ccccc1 [Compound A60] | 70 |
| C[n+]1cc(C(=O)[N-]S(=O)(=O)c2ccc(F)cc2)c2ccccc2n1 [Compound A38] | 40 |
| C[n+]1cc(C(=O)[N-]S(=O)(=O)C(F)(F)F)c2ccccc2n1 [Compound A44] | 20 |
| COP(=O)(O)Cc1c[n+](C)nc2ccccc12 [Compound A53] | 90 |
| C[n+]1cc(C(=O)[N-]S(=O)(=O)CCC(F)(F)F)c2ccccc2n1 [Compound A43] | 50 |
| COC(=O)CC[n+]1cc(C(=O)[N-]S(C)(=O)=O)c2ccccc2n1 [Compound A18] | 10 |
| COP(=O)(OC)c1c[n+](CCOS(=O)(=O)[O-])nc2ccccc12 [Compound A70] | 20 |

System: Echinochloa crus-galli (ECHCG)
Experiment: Post-emergence efficacy, glasshouse
Type: in vivo
Conditions: Echinochloa crus-galli, post-emergence, 312 h; Application Rate 1000 g/Ha; evaluated after 13 days; 100=total damage to plant, 0=no damage to plant; read-out: Control of weed species after post-emergence application, ECHCG
Protocol: as §1, §2, §3

| SMILES | pest or weed control at 1000 g/ha [%] |
| --- | --- |
| CCCC[n+]1cc(C(=O)[N-]S(C)(=O)=O)c2ccccc2n1 [Compound A41] | 20 |
| C[n+]1nc2ccccc2c(C(=O)[O-])c1-c1ccccc1 [Compound A60] | 50 |
| C[n+]1cc(C(=O)[N-]S(=O)(=O)c2ccc(F)cc2)c2ccccc2n1 [Compound A38] | 20 |
| C[n+]1cc(C(=O)[N-]S(=O)(=O)C(F)(F)F)c2ccccc2n1 [Compound A44] | 20 |
| COP(=O)(O)Cc1c[n+](C)nc2ccccc12 [Compound A53] | 80 |
| C[n+]1cc(C(=O)[N-]S(=O)(=O)CCC(F)(F)F)c2ccccc2n1 [Compound A43] | 30 |
| COC(=O)CC[n+]1cc(C(=O)[N-]S(C)(=O)=O)c2ccccc2n1 [Compound A18] | 20 |
| COP(=O)(OC)c1c[n+](CCOS(=O)(=O)[O-])nc2ccccc12 [Compound A70] | 70 |

System: Eleusine indica (ELEIN)
Experiment: Post-emergence efficacy, glasshouse
Type: in vivo
Conditions: Eleusine indica, post-emergence, 312 h; Application Rate 1000 g/Ha; evaluated after 13 days; 100=total damage to plant, 0=no damage to plant; read-out: Control of weed species after post-emergence application, ELEIN
Protocol: as §1, §2, §3

| SMILES | pest or weed control at 1000 g/ha [%] |
| --- | --- |
| CCCC[n+]1cc(C(=O)[N-]S(C)(=O)=O)c2ccccc2n1 [Compound A41] | 30 |
| C[n+]1nc2ccccc2c(C(=O)[O-])c1-c1ccccc1 [Compound A60] | 100 |
| C[n+]1cc(C(=O)[N-]S(=O)(=O)c2ccc(F)cc2)c2ccccc2n1 [Compound A38] | 90 |
| C[n+]1cc(C(=O)[N-]S(=O)(=O)C(F)(F)F)c2ccccc2n1 [Compound A44] | 0 |
| COP(=O)(O)Cc1c[n+](C)nc2ccccc12 [Compound A53] | 100 |
| C[n+]1cc(C(=O)[N-]S(=O)(=O)CCC(F)(F)F)c2ccccc2n1 [Compound A43] | 90 |
| COC(=O)CC[n+]1cc(C(=O)[N-]S(C)(=O)=O)c2ccccc2n1 [Compound A18] | 20 |
| COP(=O)(OC)c1c[n+](CCOS(=O)(=O)[O-])nc2ccccc12 [Compound A70] | 80 |

System: Lolium perenne (LOLPE)
Experiment: Post-emergence efficacy, glasshouse
Type: in vivo
Conditions: Lolium perenne, post-emergence, 312 h; Application Rate 1000 g/Ha; evaluated after 13 days; 100=total damage to plant, 0=no damage to plant; read-out: Control of weed species after post-emergence application, LOLPE
Protocol: as §1, §2, §3

| SMILES | pest or weed control at 1000 g/ha [%] |
| --- | --- |
| CCCC[n+]1cc(C(=O)[N-]S(C)(=O)=O)c2ccccc2n1 [Compound A41] | 30 |
| C[n+]1nc2ccccc2c(C(=O)[O-])c1-c1ccccc1 [Compound A60] | 40 |
| C[n+]1cc(C(=O)[N-]S(=O)(=O)c2ccc(F)cc2)c2ccccc2n1 [Compound A38] | 0 |
| C[n+]1cc(C(=O)[N-]S(=O)(=O)C(F)(F)F)c2ccccc2n1 [Compound A44] | 0 |
| COP(=O)(O)Cc1c[n+](C)nc2ccccc12 [Compound A53] | 30 |
| C[n+]1cc(C(=O)[N-]S(=O)(=O)CCC(F)(F)F)c2ccccc2n1 [Compound A43] | 20 |
| COC(=O)CC[n+]1cc(C(=O)[N-]S(C)(=O)=O)c2ccccc2n1 [Compound A18] | 0 |
| COP(=O)(OC)c1c[n+](CCOS(=O)(=O)[O-])nc2ccccc12 [Compound A70] | 10 |

System: Ipomoea hederacea (IPOHE)
Experiment: Post-emergence efficacy, glasshouse
Type: in vivo
Conditions: Ipomoea hederacea, post-emergence, 312 h; Application Rate 1000 g/Ha; evaluated after 13 days; 100=total damage to plant, 0=no damage to plant; read-out: Control of weed species after post-emergence application, IPOHE
Protocol: as §1, §2, §3

| SMILES | pest or weed control at 1000 g/ha [%] |
| --- | --- |
| CCCC[n+]1cc(C(=O)[N-]S(C)(=O)=O)c2ccccc2n1 [Compound A41] | 80 |
| C[n+]1nc2ccccc2c(C(=O)[O-])c1-c1ccccc1 [Compound A60] | 100 |
| C[n+]1cc(C(=O)[N-]S(=O)(=O)c2ccc(F)cc2)c2ccccc2n1 [Compound A38] | 20 |
| C[n+]1cc(C(=O)[N-]S(=O)(=O)C(F)(F)F)c2ccccc2n1 [Compound A44] | 20 |
| COP(=O)(O)Cc1c[n+](C)nc2ccccc12 [Compound A53] | 100 |
| C[n+]1cc(C(=O)[N-]S(=O)(=O)CCC(F)(F)F)c2ccccc2n1 [Compound A43] | 80 |
| COC(=O)CC[n+]1cc(C(=O)[N-]S(C)(=O)=O)c2ccccc2n1 [Compound A18] | 20 |
| COP(=O)(OC)c1c[n+](CCOS(=O)(=O)[O-])nc2ccccc12 [Compound A70] | 30 |

System: Digitaria sanguinalis (DIGSA)
Experiment: Post-emergence efficacy, glasshouse
Type: in vivo
Conditions: Digitaria sanguinalis, post-emergence, 312 h; Application Rate 1000 g/Ha; evaluated after 13 days; 100=total damage to plant, 0=no damage to plant; read-out: Control of weed species after post-emergence application, DIGSA
Protocol: as §1, §2, §3

| SMILES | pest or weed control at 1000 g/ha [%] |
| --- | --- |
| CCCC[n+]1cc(C(=O)[N-]S(C)(=O)=O)c2ccccc2n1 [Compound A41] | 40 |
| C[n+]1nc2ccccc2c(C(=O)[O-])c1-c1ccccc1 [Compound A60] | 90 |
| C[n+]1cc(C(=O)[N-]S(=O)(=O)c2ccc(F)cc2)c2ccccc2n1 [Compound A38] | 30 |
| C[n+]1cc(C(=O)[N-]S(=O)(=O)C(F)(F)F)c2ccccc2n1 [Compound A44] | 0 |
| COP(=O)(O)Cc1c[n+](C)nc2ccccc12 [Compound A53] | 90 |
| C[n+]1cc(C(=O)[N-]S(=O)(=O)CCC(F)(F)F)c2ccccc2n1 [Compound A43] | 70 |
| COC(=O)CC[n+]1cc(C(=O)[N-]S(C)(=O)=O)c2ccccc2n1 [Compound A18] | 30 |
| COP(=O)(OC)c1c[n+](CCOS(=O)(=O)[O-])nc2ccccc12 [Compound A70] | 70 |

System: Amaranthus palmeri (AMAPA)
Experiment: Post-emergence efficacy, glasshouse
Type: in vivo
Conditions: Amaranthus palmeri, post-emergence, 312 h; Application Rate 1000 g/Ha; evaluated after 13 days; 100=total damage to plant, 0=no damage to plant; read-out: Control of weed species after post-emergence application, AMAPA
Protocol: as §1, §2, §3

| SMILES | pest or weed control at 1000 g/ha [%] |
| --- | --- |
| CCCC[n+]1cc(C(=O)[N-]S(C)(=O)=O)c2ccccc2n1 [Compound A41] | 80 |
| C[n+]1nc2ccccc2c(C(=O)[O-])c1-c1ccccc1 [Compound A60] | 100 |
| C[n+]1cc(C(=O)[N-]S(=O)(=O)c2ccc(F)cc2)c2ccccc2n1 [Compound A38] | 60 |
| C[n+]1cc(C(=O)[N-]S(=O)(=O)C(F)(F)F)c2ccccc2n1 [Compound A44] | 80 |
| COP(=O)(O)Cc1c[n+](C)nc2ccccc12 [Compound A53] | 100 |
| C[n+]1cc(C(=O)[N-]S(=O)(=O)CCC(F)(F)F)c2ccccc2n1 [Compound A43] | 60 |
| COC(=O)CC[n+]1cc(C(=O)[N-]S(C)(=O)=O)c2ccccc2n1 [Compound A18] | 10 |
| COP(=O)(OC)c1c[n+](CCOS(=O)(=O)[O-])nc2ccccc12 [Compound A70] | 50 |

System: Euphorbia heterophylla (EPHHL)
Experiment: Post-emergence efficacy, glasshouse
Type: in vivo
Conditions: Euphorbia heterophylla, post-emergence, 312 h; Application Rate 1000 g/Ha; evaluated after 13 days; 100=total damage to plant, 0=no damage to plant; read-out: Control of weed species after post-emergence application, EPHHL
Protocol: as §1, §2, §3

| SMILES | pest or weed control at 1000 g/ha [%] |
| --- | --- |
| CCCC[n+]1cc(C(=O)[N-]S(C)(=O)=O)c2ccccc2n1 [Compound A41] | 100 |
| C[n+]1nc2ccccc2c(C(=O)[O-])c1-c1ccccc1 [Compound A60] | 100 |
| C[n+]1cc(C(=O)[N-]S(=O)(=O)c2ccc(F)cc2)c2ccccc2n1 [Compound A38] | 60 |
| C[n+]1cc(C(=O)[N-]S(=O)(=O)C(F)(F)F)c2ccccc2n1 [Compound A44] | 30 |
| COP(=O)(O)Cc1c[n+](C)nc2ccccc12 [Compound A53] | 100 |
| C[n+]1cc(C(=O)[N-]S(=O)(=O)CCC(F)(F)F)c2ccccc2n1 [Compound A43] | 90 |
| COC(=O)CC[n+]1cc(C(=O)[N-]S(C)(=O)=O)c2ccccc2n1 [Compound A18] | 10 |
| COP(=O)(OC)c1c[n+](CCOS(=O)(=O)[O-])nc2ccccc12 [Compound A70] | 60 |
